Experimental data from the supplement of paper PMC8253809.

Legend:
[1] = system: SUDIPGXIX (diffuse intrinsic pontine glioma line); assay: EC50 (inflection of fitted growth-inhibition curve) (log10 M)
Summary of the method: (§1)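 Patient-derived pHGG/DIPG cell lines and astrocyte controls were grown on 1% Geltrex-coated 384-well plates and exposed by pin tool to a 10-point threefold dilution series (mean top concentration 35 μM), in triplicate. Exposure was 7 days (iAstro 3 days) at 37 °C, 5% CO2. CellTiter-Glo luminescence was log2-transformed, normalised per plate to % activity between negative (solvent) and positive control wells, and pooled. EC50 and maximal response (yFin) come from the lowest-AICc three- or four-parameter log-logistic fit.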

[2] = system: DIPGX29 (H3.3 K27M diffuse intrinsic pontine glioma line); assay: maximal growth inhibition (yFin) relative to DMSO / staurosporine; higher = more efficacious
Summary of the method: as §1

[3] = system: DIPGX37 (H3.3 K27M diffuse intrinsic pontine glioma line); assay: as above
Summary of the method: as §1

[4] = system: DIPGX7 (H3.3 K27M diffuse intrinsic pontine glioma line); assay: as above
Summary of the method: as §1

[5] = system: DIPGX9 (diffuse intrinsic pontine glioma line); assay: as above
Summary of the method: as §1

[6] = system: HABS (astrocyte control); assay: as above
Summary of the method: as §1

[7] = system: HGGX2 (paediatric high-grade glioma line); assay: as above
Summary of the method: as §1

[8] = system: HGGX39 (paediatric high-grade glioma line); assay: as above
Summary of the method: as §1

[9] = system: HGGX42 (H3.3 G34R paediatric high-grade glioma line); assay: as above
Summary of the method: as §1

[10] = system: HGGX6 (H3.3 G34R paediatric high-grade glioma line); assay: as above
Summary of the method: as §1

[11] = system: SUDIPGIV (diffuse intrinsic pontine glioma line); assay: as above
Summary of the method: as §1

[12] = system: SUDIPGVI (diffuse intrinsic pontine glioma line); assay: as above
Summary of the method: as §1

[13] = system: SUDIPGXIII (diffuse intrinsic pontine glioma line); assay: as above
Summary of the method: as §1

[14] = system: SUDIPGXIX; assay: as above
Summary of the method: as §1

[15] = system: SUDIPGXVII (diffuse intrinsic pontine glioma line); assay: as above
Summary of the method: as §1

[16] = system: SUDIPGXXI (diffuse intrinsic pontine glioma line); assay: as above
Summary of the method: as §1

[17] = system: iAstro (astrocyte control); assay: as above
Summary of the method: as §1

Compound | EC50 (log10 M) [1] | maximal growth inhibition [2] [%] | maximal growth inhibition [3] [%] | maximal growth inhibition [4] [%] | maximal growth inhibition [5] [%] | maximal growth inhibition [6] [%] | maximal growth inhibition [7] [%] | maximal growth inhibition [8] [%] | maximal growth inhibition [9] [%] | maximal growth inhibition [10] [%] | maximal growth inhibition [11] [%] | maximal growth inhibition [12] [%] | maximal growth inhibition [13] [%] | maximal growth inhibition [14] [%] | maximal growth inhibition [15] [%] | maximal growth inhibition [16] [%] | maximal growth inhibition [17] [%]
CC(=O)c1cc([N+](=O)[O-])c(Sc2ccc(F)cc2F)s1 | -4.78 | 115 | 112 | 117 | 109 | 37.7 | 106 | 24.6 | 108 | 104 | 104 | 94.1 | 104 | 118 | 74.3 | 113 | 89.1
CC(C)C[C@H](NC(=O)CNC(=O)c1cc(Cl)ccc1Cl)B(O)O [IXAZOMIB] | -7.71 | 77.5 | 79.9 | 81.4 | 82.6 | 84.1 | 86 | 84.7 | 70.6 | 79.4 | 89.4 | 73.9 | 77.3 | 88.1 | 81 | 86.4 | 67.4
O=C(Nc1ccc(Nc2nccc(Nc3cc(C4CCCC4)[nH]n3)n2)cc1)Nc1cccc(C(F)(F)F)c1 [CD532] | -6.52 | 94.4 | 98.2 | 112 | 115 | 122 | 111 | 104 | 102 | 87.6 | 112 | 111 | 103 | 112 | 100 | 109 | 95.2
Cc1ccc2nc(NCCN)c3ncc(C)n3c2c1 | -4.93 | 88.2 | 86.6 | 92.7 | 98.5 | 58.1 | 45.5 | 57.7 | 83.9 | 81.8 | 91.6 | 70.6 | 73.5 | 85.2 | 88.5 | 117 | 26.6
O=C(c1ccc(Nc2nccc(-c3cc4ccccc4s3)n2)cc1)N1CCC(N2CCCC2)CC1 [IKK 16] | -4.87 | 117 | 120 | 108 | 122 | 124 | 104 | 119 | 107 | 106 | 115 | 104 | 114 | 128 | 118 | 120 | 94.4
CCOC(=O)CCNc1cc(N2CCc3ccccc3CC2)nc(-c2ccccn2)n1 [GSK-J4] | -4.97 | 69.6 | 56.1 | 46.7 | 94.2 | 72.9 | 100 | 63.1 | 100 | 62.6 | 61.5 | 44.1 | 48.1 | 98.3 | 55.2 | 112 | 69.4
O=C(c1ccccc1)c1ccc2nc(NC(=O)c3csc(C4CCN(c5ncnc6ccsc56)CC4)n3)[nH]c2c1 | -4.95 | 62.1 | 38.4 | 89.8 | 44.1 | 35.8 | 51.9 | 29.6 | 48.7 | 36 | 27.7 | 45.9 | 50.1 | 112 | 28.2 | 111 | 64.8
O=C(Nc1ccccc1-c1cn2c(CN3CCNCC3)csc2n1)c1cnc2ccccc2n1 [SRT1720] | -5.34 | 94.6 | 94.6 | 102 | 103 | 98.3 | 99.1 | 95.5 | 102 | 90.5 | 104 | 93.9 | 94.6 | 104 | 99.2 | 105 | 91.6
CC(C)c1cc(C(=O)N2Cc3ccc(CN4CCN(C)CC4)cc3C2)c(O)cc1O | -6.98 | 105 | 92.6 | 78.3 | 94.9 | 108 | 54.4 | 105 | 65 | 34.9 | 56.5 | 51.6 | 51.9 | 77.2 | 67.2 | 105 | 31.4
c1ccc2c(-c3cnn4cc(-c5ccc(N6CCNCC6)cc5)cnc34)ccnc2c1 | -5.66 | 95.2 | 99 | 106 | 108 | 108 | 104 | 88.9 | 102 | 92.8 | 107 | 105 | 105 | 113 | 107 | 119 | 93.5
COc1ccc(C[C@H](NC(=O)[C@H](C)NC(=O)CN2CCOCC2)C(=O)N[C@@H](Cc2ccccc2)C(=O)C2(C)CO2)cc1 (stereo in doubt) [ONX-0914] | -6.58 | 71.9 | 95.7 | 97.5 | 96.9 | 94.2 | 87.4 | 91.9 | 68 | 92.2 | 89.7 | 85.8 | 89.5 | 95 | 91.8 | 93.9 | 73.5
COc1cccc2c1C(=O)c1c(O)c3c(c(O)c1C2=O)C[C@@](O)(C(=O)CO)C[C@@H]3O[C@H]1C[C@H](N)[C@H](O)[C@H](C)O1 [DOXORUBICIN] | -7.02 | 102 | 86.8 | 103 | 99.9 | 69.6 | 61.1 | 101 | 96.5 | 86.1 | 97.8 | 89.1 | 87.7 | 97.2 | 95.8 | 95.8 | 26.4
COc1ccc(-c2nc(N3CCOCC3)c3sc(CN(C)c4ncc(C(=O)NO)cn4)cc3n2)cn1 [CUDC-907] | -6.9 | 106 | 119 | 97.5 | 108 | 129 | 103 | 112 | 105 | 102 | 113 | 98 | 109 | 119 | 107 | 122 | 73.6
O=C(Nc1ccc([N+](=O)[O-])cc1Cl)c1cc(Cl)ccc1O [NICOLSAMIDE] | -5.31 | 78.2 | 81.9 | 86 | 94 | 82.4 | 93.8 | 96.9 | 87.9 | 71.9 | 92.4 | 74.1 | 84.2 | 89 | 88.7 | 110 | 34.7
CN(C)C/C=C/C(=O)Nc1cc2c(Nc3ccc(F)c(Cl)c3)ncnc2cc1O[C@H]1CCOC1 [AFATINIB] | -4.83 | 91.2 | 95.5 | 110 | 118 | 101 | 109 | 93.2 | 108 | 93.5 | 111 | 111 | 92.1 | 120 | 109 | 120 | 92.5
C[C@@H](Oc1cc(-c2cnn(C3CCNCC3)c2)cnc1N)c1c(Cl)ccc(F)c1Cl [CRIZOTINIB] | -5.23 | 104 | 102 | 104 | 101 | 90.9 | 97.4 | 92.8 | 102 | 88.6 | 98.4 | 94.1 | 92.3 | 99.6 | 96.4 | 119 | 87.3
CC(C)(C)c1cnc(CSc2cnc(NC(=O)C3CCNCC3)s2)o1 | -6.11 | 84 | 86.8 | 113 | 104 | 45.9 | 57 | 84.8 | 87.2 | 83.9 | 103 | 82.8 | 92.1 | 116 | 95.8 | 110 | 27.2
CN(C)C/C=C/C(=O)Nc1ccc(C(=O)Nc2cccc(Nc3ncc(Cl)c(-c4c[nH]c5ccccc45)n3)c2)cc1 [THZ1] | -8.07 | 87.4 | 81.3 | 88.6 | 88.7 | 100 | 97.5 | 86.2 | 110 | 81.5 | 87.4 | 85.3 | 85 | 84.4 | 87.2 | 107 | 99.1
Cc1c(C2CCN(CCc3ccccc3)CC2)noc1-c1ccc(Cl)cc1 [L-741,742] | -4.84 | 82.8 | 101 | 104 | 22.2 | 31.3 | 42.8 | 84 | 74.2 | 69.7 | 77.7 | 44.4 | 22.9 | 27.2 | 34.3 | 106 | 43.2
Cc1[nH]c2ccccc2c1CCNCc1ccc(/C=C/C(=O)NO)cc1 [PANOBINOSTAT] | -6.75 | 76.5 | 76.5 | 89 | 90.7 | 95.2 | 90 | 75.6 | 95.5 | 73.9 | 86.4 | 86.9 | 93.9 | 106 | 90.9 | 110 | 48
COC(=O)[C@]12CCC(C)(C)C[C@H]1[C@H]1C(=O)C=C3[C@@]4(C)C=C(C#N)C(=O)C(C)(C)[C@@H]4CC[C@@]3(C)[C@]1(C)CC2 [BARDOXOLONE METHYL] | -5.53 | 87.1 | 88.6 | 112 | 107 | 105 | 104 | 92.1 | 111 | 86.8 | 122 | 96.1 | 97 | 124 | 109 | 103 | 96.5
CCN(CC)CCNC(=O)c1c(C)[nH]c(/C=C2\C(=O)Nc3ccc(F)cc32)c1C [SUNITINIB] | -5.05 | 103 | 101 | 116 | 117 | 122 | 108 | 105 | 112 | 107 | 119 | 108 | 113 | 129 | 120 | 115 | 97.5
Nc1ccccc1NC(=O)c1ccc(CNc2nccc(-c3cccnc3)n2)cc1 [MOCETINOSTAT] | -5.46 | 78.5 | 96 | 104 | 103 | 94.6 | 96.5 | 96.8 | 78 | 84.8 | 104 | 97.2 | 74.1 | 100 | 93 | 126 | 38.2
OC1(c2ccc(Cl)c(C(F)(F)F)c2)CCN(CCCC(c2ccc(F)cc2)c2ccc(F)cc2)CC1 [PENFLURIDOL] | -5.53 | 94.8 | 93.5 | 102 | 105 | 88.6 | 98.9 | 91 | 98.5 | 84.9 | 97.2 | 98.5 | 92.8 | 97.4 | 95.6 | 106 | 85.2
CCCS(=O)(=O)c1nc(NC2CC2)cc(-c2ccc3c(ccn3C3CC(C)(C)NC(C)(C)C3)c2)n1 [NVS-1] | -5.92 | 82.2 | 79.6 | 95.1 | 88.9 | 86.9 | 86.7 | 82.8 | 88.2 | 79.3 | 90.5 | 88.4 | 88.4 | 90.7 | 88.4 | 104 | 83.2
CC(C)(C)OC(=O)Nc1ccc(-c2cc(C(=O)NCCCCCCC(=O)NO)no2)cc1 [BML-281] | -5 | 55.1 | 38.1 | 91.7 | 97.6 | 74.1 | 64 | 84 | 33.3 | 52.9 | 76 | 71.8 | 39 | 85.3 | 58.3 | 104 | 50
